From BindingDB's records for doi:10.1016/s0960-894x(01)00313-4 (Cor Therapeutics, 2001) come the findings set out here.

The target of this experiment is P2Y purinoceptor 12 (Homo sapiens, UniProt Q9H244). Put plainly: ChEBML_162514. The source says:
Ability to displace [3H]2-MeS-ADP from human Purinergic receptor P2Y12

Some results are limits rather than exact numbers.

Chain of P2Y purinoceptor 12 (Q9H244 whole entry): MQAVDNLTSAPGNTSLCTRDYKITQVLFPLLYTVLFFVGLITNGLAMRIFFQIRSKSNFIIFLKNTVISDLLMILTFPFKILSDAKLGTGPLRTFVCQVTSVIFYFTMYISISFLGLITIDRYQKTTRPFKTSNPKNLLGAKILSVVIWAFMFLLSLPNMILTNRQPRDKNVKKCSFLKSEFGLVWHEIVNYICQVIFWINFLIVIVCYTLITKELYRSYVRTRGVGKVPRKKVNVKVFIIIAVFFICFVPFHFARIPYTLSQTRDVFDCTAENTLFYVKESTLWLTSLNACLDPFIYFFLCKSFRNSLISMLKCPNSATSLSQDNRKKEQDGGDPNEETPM

As for `O=C1CS(=O)(=O)N=C2Sc3cc(OC(F)(F)F)ccc3N12` [2,2-Dioxo-7-trifluoromethoxy-2H-2lambda*6*,9-dithia-1,4a-diaza-fluoren-4-ol], the IC50 was more than 120 µM.

In turn, `O=C(CS(=O)(=O)Nc1nc2ccc(Oc3ccccc3)cc2s1)C1C(=O)N2C(=NS1(=O)=O)Sc1cc(Oc3ccccc3)ccc12` (stereo unspecified) [2-(4-Hydroxy-2,2-dioxo-7-phenoxy-2H-2lambda*6*,9-dithia-1,4a-diaza-fluoren-3-yl)-2-oxo-ethanesulfonic acid (6-phenoxy-benzothiazol-2-yl)-amide] yielded a concentration for half-maximal inhibition (IC50) of more than 50 µM.

As to `O=C(CS(=O)(=O)Nc1nc2ccc(-c3ccccc3)cc2s1)C1C(=O)N2C(=NS1(=O)=O)Sc1cc(-c3ccccc3)ccc12` (stereo unspecified) [2-(4-Hydroxy-2,2-dioxo-7-phenyl-2H-2lambda*6*,9-dithia-1,4a-diaza-fluoren-3-yl)-2-oxo-ethanesulfonic acid (6-phenyl-benzothiazol-2-yl)-amide], the IC50 was more than 50 µM.

`O=C(CS(=O)(=O)Nc1nc2ccc([N+](=O)[O-])cc2s1)C1=C([O-])[n+]2c(sc3cc([N+](=O)[O-])ccc32)NS1(=O)=O` [2-(4-Hydroxy-7-nitro-2,2-dioxo-2H-2lambda*6*,9-dithia-1,4a-diaza-fluoren-3-yl)-2-oxo-ethanesulfonic acid (6-nitro-benzothiazol-2-yl)-amide] came in with an IC50 of 35 µM.

`O=C(CS(=O)(=O)Nc1nc2ccc(Cl)cc2s1)C1C(=O)N2C(=NS1(=O)=O)Sc1cc(Cl)ccc12` (stereo unspecified) [2-(7-Chloro-4-hydroxy-2,2-dioxo-2H-2lambda*6*,9-dithia-1,4a-diaza-fluoren-3-yl)-2-oxo-ethanesulfonic acid (6-chloro-benzothiazol-2-yl)-amide] showed an IC50 of 35 µM. In other words, the double-digit micromolar range.

For `O=C(CS(=O)(=O)Nc1nc2ccc(C3CCCCC3)cc2s1)C1C(=O)N2C(=NS1(=O)=O)Sc1cc(C3CCCCC3)ccc12` (stereo unspecified) [2-(7-Cyclohexyl-4-hydroxy-2,2-dioxo-2H-2lambda*6*,9-dithia-1,4a-diaza-fluoren-3-yl)-2-oxo-ethanesulfonic acid (6-cyclohexyl-benzothiazol-2-yl)-amide], the IC50 was more than 120 µM.

One may read the IC50 as the midpoint of a concentration-inhibition curve.
